Data taken from PubChem BioAssay (NCI).
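In this assay, cells in 96-well plates receive the compound at five concentrations for 48 hours. Endpoints are linearly interpolated between the surrounding concentrations. The concentration for 50% growth inhibition is given as GI50. TGI denotes the concentration required for complete inhibition of growth.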

Experiments:
Experiment in all cases: NCI tumour cell line growth inhibition, 48 h
MDA-N = test system: MDA-N
MDA-MB-435 = test system: MDA-MB-435
NCI/ADR-RES ovarian = test system: NCI/ADR-RES ovarian
MDA-MB-231 breast = test system: MDA-MB-231 breast
DU-145 prostate = test system: DU-145 prostate
DMS 273 small cell lung = test system: DMS 273 small cell lung
LXFL 529 NSCLC = test system: LXFL 529 NSCLC
RXF-631 renal = test system: RXF-631 renal
XF 498 CNS = test system: XF 498 CNS
KM20L2 colon = test system: KM20L2 colon
HS 578T breast = test system: HS 578T breast
MALME-3M melanoma = test system: MALME-3M melanoma
BT-549 breast = test system: BT-549 breast

| Structure (SMILES) | TGI (MDA-N) [µM] | TGI (MDA-MB-435) [µM] | TGI (NCI/ADR-RES ovarian) [µM] | TGI (MDA-MB-231 breast) [µM] | TGI (DU-145 prostate) [µM] | TGI (DMS 273 small cell lung) [µM] | TGI (LXFL 529 NSCLC) [µM] | TGI (RXF-631 renal) [µM] | TGI (XF 498 CNS) [µM] | TGI (KM20L2 colon) [µM] | TGI (HS 578T breast) [µM] | TGI (MALME-3M melanoma) [µM] | TGI (BT-549 breast) [µM] | further results |
| --- | --- | --- | --- | --- | --- | --- | --- | --- | --- | --- | --- | --- | --- | --- |
| C[C@]12CC[C@@H]3c4ccc(OCCN5CCCC5)cc4CC[C@H]3[C@@H]1CCC2=O | 64.3 | > 100 | > 100 | 68.7 | > 100 | – | – | – | – | – | – | – | – | – |
| CCCCCCCCCCCCCCCC(=O)OC1C(O)C(CO)OC(OC)C1NC(=O)N(CCCl)N=O (stereo unspecified) | – | – | – | – | – | 29.4 | 25.1 | 32 | 30.8 | 32.4 | – | – | – | – |
| CCCOC1OC(CS(=O)(=O)O)C(O)C(O)C1O (stereo unspecified) | > 100 | > 100 | > 100 | – | > 100 | – | – | – | – | – | > 100 | > 100 | > 100 | – |
| O=c1nc2sc3ccc4ccccc4c3n2[nH]c1=O | – | – | – | – | – | > 100 | > 100 | – | – | 99 | – | – | – | – |
| CCCCN=C1OCc2[nH][nH]c(=O)c21 | – | – | – | – | – | > 100 | > 100 | > 100 | > 100 | > 100 | – | – | – | – |
| O=C(O)Cn1c2c(c3c(O)cccc31)C(=O)c1ccccc1-2 | – | > 100 | > 100 | > 100 | > 100 | – | – | – | – | – | > 100 | > 100 | > 100 | GI50 (MDA-MB-435): > 100 µM; GI50 (HS 578T breast): > 100 µM; GI50 (NCI/ADR-RES ovarian): > 100 µM; GI50 (MDA-MB-231 breast): > 100 µM; GI50 (MALME-3M melanoma): > 100 µM; GI50 (BT-549 breast): 12.8 µM; GI50 (DU-145 prostate): 0.0519 µM |
| CCOC(=O)NC(Nc1ccc(Cl)cn1)(C(F)(F)F)C(F)(F)F | > 100 | > 100 | – | > 100 | > 100 | – | – | – | – | – | > 100 | > 100 | > 100 | – |
| N#CCCN(CCC#N)c1ccc(/C=C2\N=C(c3cc([N+](=O)[O-])ccc3Cl)N(NC(=O)CC(=O)Nc3ccccc3Cl)C2=O)cc1 | – | – | – | – | – | > 100 | > 100 | – | > 100 | 34.5 | – | > 100 | – | – |
| CC(=O)N/C(=C\c1ccc(/C=C(\NC(C)=O)C2=NC3C(=O)c4ccccc4C(=O)C3N2)cc1)C1=NC2C(=O)c3ccccc3C(=O)C2N1 (stereo unspecified) | – | – | – | – | – | > 100 | > 100 | > 100 | > 100 | > 100 | – | – | – | – |
